# Source: US20120142667A1, “PYRIMIDINE DERIVATIVES AS ZAP-70 INHIBITORS” (priority 2009, published 2012)
# Counter-ions that a name gives are not always drawn.
# Molecular target: T1, ZAP-70 (Homo sapiens, UniProt P43403)
# T1 construct: endogenous in cells; host or cells: cell lysate
# T1 sequence (P43403 1-619): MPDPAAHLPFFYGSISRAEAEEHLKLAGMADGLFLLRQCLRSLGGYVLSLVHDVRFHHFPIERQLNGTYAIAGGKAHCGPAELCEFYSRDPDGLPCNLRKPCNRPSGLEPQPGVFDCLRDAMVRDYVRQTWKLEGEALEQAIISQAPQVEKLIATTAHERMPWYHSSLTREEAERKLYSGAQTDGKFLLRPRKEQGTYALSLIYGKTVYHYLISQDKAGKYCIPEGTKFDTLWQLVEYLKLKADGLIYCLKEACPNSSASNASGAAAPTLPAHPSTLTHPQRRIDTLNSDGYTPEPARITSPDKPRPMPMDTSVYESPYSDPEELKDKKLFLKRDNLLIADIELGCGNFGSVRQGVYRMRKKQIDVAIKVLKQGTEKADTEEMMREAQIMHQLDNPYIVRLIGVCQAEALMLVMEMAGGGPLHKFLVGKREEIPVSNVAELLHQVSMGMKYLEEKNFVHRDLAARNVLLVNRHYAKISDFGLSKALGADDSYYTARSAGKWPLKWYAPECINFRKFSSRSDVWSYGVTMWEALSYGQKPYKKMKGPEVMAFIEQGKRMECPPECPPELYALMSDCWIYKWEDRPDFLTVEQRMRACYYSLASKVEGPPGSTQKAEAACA
# Assay: ZAP-70 kinobeads assay
# Format: binding
# Settings: cell lysate
# Procedure: The compounds of the present invention as described in the previous examples can be tested in the ZAP-70 kinobeads assay as described (EP-A 1862802 and WO-A 2007/137867). Briefly, test compounds (at various concentrations) and the affinity matrix with the immobilized aminopyrido-pyrimidine ligand 24 are added to cell lysate aliquots and allowed to bind to the proteins in the lysate sample. After the incubation time the beads with captured proteins are separated from the lysate. Bound proteins are then eluted and the presence ZAP-70 is detected and quantified using a specific antibody in a dot blot procedure and the Odyssey infrared detection system.
row,SMILES,IC50 [µM]
1,"COc1ccc(Nc2nc(Nc3cccc(OCCC(F)(F)F)c3C)ncc2Cl)c(NS(C)(=O)=O)c1 [Example 98, N-(2-((5-chloro-2-((2-methyl-3-(3,3,3-trifluoropropoxy)phenyl)amino)pyrimidin-4-yl)amino)-5-methoxyphenyl)methanesulfonamide]",0.1 to 1
2,"COc1ccc(Nc2nc(Nc3cc(OC)ccc3OC)ncc2Cl)c(NS(C)(=O)=O)c1 [Example 22, N-(2-(5-chloro-2-(2,5-dimethoxyphenylamino)pyrimidin-4-ylamino)-5-methoxyphenyl)methanesulfonamide]",0.1 to 1
3,"CS(=O)(=O)Nc1ccccc1Nc1nc(Nc2cc(F)ccc2F)ncc1F [Example 10, N-(2-(2-(2,5-difluorophenylamino)-5-fluoropyrimidin-4-ylamino)phenyl)methanesulfonamide]",1 to 10
4,"COc1ccc(Nc2nc(Nc3ccccc3OC)ncc2Cl)c(NS(C)(=O)=O)c1 [Example 51, N-(2-(5-chloro-2-(2-methoxyphenylamino)pyrimidin-4-ylamino)-5-methoxyphenyl)methanesulfonamide hydrochloride]",0.1 to 1
5,"COc1ccc(Nc2nc(Nc3cc(F)ccc3OC)ncc2Cl)c(NS(C)(=O)=O)c1 [Example 42, N-(2-(5-chloro-2-(5-fluoro-2-methoxyphenylamino)pyrimidin-4-ylamino)-5-methoxyphenyl)methanesulfonamide]",0.1 to 1
6,"COc1cc(OCCCN2CCCCC2)ccc1Nc1ncc(Br)c(Nc2ccccc2NS(C)(=O)=O)n1 [Example 28, N-(2-(5-bromo-2-(2-methoxy-4-(3-(piperidin-1-yl)propoxy)phenylamino)pyrimidin-4-ylamino)phenyl)methanesulfonamide]",≤ 0.1
7,"COc1ccc(OCCO)cc1Nc1ncc(F)c(Nc2cccc(C)c2NS(C)(=O)=O)n1 [Example 103, N-(2-(5-fluoro-2-(5-(2-hydroxyethoxy)-2-methoxyphenylamino)pyrimidin-4-ylamino)-6-methylphenyl)methanesulfonamide]",1 to 10
8,"CS(=O)(=O)Nc1ccccc1Nc1nc(Nc2ccccc2OC(F)F)ncc1Br [Example 6, N-(2-(5-bromo-2-(2-(difluoromethoxy)phenylamino)pyrimidin-4-ylamino)phenyl)methanesulfonamide]",1 to 10
9,"COc1ccc(Nc2nc(Nc3c[nH]c(=O)cc3C)ncc2Cl)c(NS(C)(=O)=O)c1 [Example 82, N-(2-(5-chloro-2-(4-methyl-6-oxo-1,6-dihydropyridin-3-ylamino)pyrimidin-4-ylamino)-5-methoxyphenyl)methanesulfonamide]",0.1 to 1
10,"COc1ccc(Nc2nc(Nc3cc(OCCN)ccc3F)ncc2Cl)c(NS(C)(=O)=O)c1 [Example 66, N-(2 (2 (5 (2 aminoethoxy)-2-fluorophenylamino)-5-chloropyrimidin-4-ylamino)-5-methoxyphenyl)methanesulfonamide]",0.1 to 1
11,"COc1ccc(Nc2nc(Nc3cc(F)c(OC)cc3OC)ncc2Cl)c(NS(C)(=O)=O)c1 [Example 38, N-(2-(5-chloro-2-(5-fluoro-2,4-dimethoxyphenylamino)pyrimidin-4-ylamino)-5-methoxyphenyl)methanesulfonamide hydrochloride]",0.1 to 1
12,"COc1ccc(Nc2nc(Nc3ccccc3C)ncc2Cl)c(NS(C)(=O)=O)c1 [Example 50, N-(2-(5-chloro-2-(o-tolylamino)pyrimidin-4-ylamino)-5-methoxyphenyl)methanesulfonamide hydrochloride]",0.1 to 1
13,"COc1ccc(Nc2ncc(Cl)c(Nc3ccc(OC)cc3NS(C)(=O)=O)n2)c(F)c1 [Example 33, N-(2-(5-chloro-2-(2-fluoro-4-methoxyphenylamino)pyrimidin-4-ylamino)-5-methoxyphenyl)methanesulfonamide]",0.1 to 1
14,"COc1ccc(Nc2ncc(F)c(Nc3ccccc3NS(C)(=O)=O)n2)c(OC)c1 [Example 14, N-(2-(2-(2,4-dimethoxyphenylamino)-5-fluoropyrimidin-4-ylamino)phenyl)methanesulfonamide]",1 to 10
15,"CS(=O)(=O)Nc1ccccc1Nc1nc(Nc2ccccc2F)ncc1Br [Example 17, N-(2-(5-bromo-2-(2-fluorophenylamino)pyrimidin-4-ylamino)phenyl)methanesulfonamide hydrochloride]",0.1 to 1

# Other lines, results leading:
row,IC50 [µM],SMILES
1,1 to 10,"COc1ccc(Nc2nc(Nc3nc(OC)ccc3Cl)ncc2Cl)c(NS(C)(=O)=O)c1 [Example 99, N-(2-(5-chloro-2-(3-chloro-6-methoxypyridin-2-ylamino)pyrimidin-4-ylamino)-5-methoxyphenyl)methanesulfonamide]"
2,1 to 10,"COc1ccc(Nc2nc(Nc3cc(OCCO)c(OC)cc3C)ncc2Cl)c(NS(C)(=O)=O)c1 [Example 114, N-(2-(5-chloro-2-(5-(2-hydroxyethoxy)-4-methoxy-2-methylphenylamino)pyrimidin-4-ylamino)-5-methoxyphenyl)methanesulfonamide]"
3,0.1 to 1,"COc1ccc(Nc2nc(Nc3cc(OC)c(F)cc3F)ncc2Cl)c(NS(C)(=O)=O)c1 [Example 58, N-(2-(5-chloro-2-(2,4-difluoro-5-methoxyphenylamino)pyrimidin-4-ylamino)-5-methoxyphenyl)methanesulfonamide hydrochloride]"
4,1 to 10,"COc1ccc(Nc2nc(Nc3ccc(F)c(F)c3OC)ncc2Cl)c(NS(C)(=O)=O)c1 [Example 46, N-(2-(5-chloro-2-(3,4-difluoro-2-methoxyphenylamino)pyrimidin-4-ylamino)-5-methoxyphenyl)methanesulfonamide]"
5,1 to 10,"COc1ccccc1Nc1ncc(F)c(Nc2ccccc2NS(C)(=O)=O)n1 [Example 8, N-(2-(5-fluoro-2-(2-methoxyphenylamino)pyrimidin-4-ylamino)phenyl)methanesulfonamide]"
6,0.1 to 1,"Cc1ccccc1Nc1ncc(Br)c(Nc2ccccc2NS(C)(=O)=O)n1 [Example 24, N-(2-(5-bromo-2-(2-methylphenylamino)pyrimidin-4-ylamino)phenyl)methanesulfonamide hydrochloride]"
7,0.1 to 1,"COc1ccc(Nc2nc(Nc3cc(OC)c(OC)cc3OC)ncc2F)c(NS(C)(=O)=O)c1 [Example 25, N-(2-(5-fluoro-2-(2,4,5-trimethoxyphenylamino)pyrimidin-4-ylamino)-5-methoxyphenyl)methanesulfonamide]"
8,0.1 to 1,"COc1ccc(Nc2nc(Nc3cc(C)c(OC)cc3OC)ncc2Cl)c(NS(C)(=O)=O)c1 [Example 39, N-(2-(5-chloro-2-(2,4-dimethoxy-5-methylphenylamino)pyrimidin-4-ylamino)-5-methoxyphenyl)methanesulfonamide]"
9,1 to 10,"COc1ccc(Nc2nc(Nc3cccc(F)c3F)ncc2Cl)c(NS(C)(=O)=O)c1 [Example 60, N-(2-(5-chloro-2-(2,3-difluorophenylamino)pyrimidin-4-ylamino)-5-methoxyphenyl)methanesulfonamide hydrochloride]"
10,0.1 to 1,"COc1ccc(Nc2nc(Nc3cccc(C)c3C)ncc2Cl)c(NS(C)(=O)=O)c1 [Example 52, N-(2-(5-chloro-2-(2,3-dimethylphenylamino)pyrimidin-4-ylamino)-5-methoxyphenyl)methanesulfonamide]"
11,0.1 to 1,"COc1ccc(Nc2nc(Nc3ccc(F)cc3C)ncc2Cl)c(NS(C)(=O)=O)c1 [Example 45, N-(2-(5-chloro-2-(4-fluoro-2-methylphenylamino)pyrimidin-4-ylamino)-5-methoxyphenyl)methanesulfonamide]"
12,0.1 to 1,"COc1ccc(Nc2nc(Nc3cc(C)ccc3F)ncc2Cl)c(NS(C)(=O)=O)c1 [Example 49, N-(2-(5-chloro-2-(2-fluoro-5-methylphenylamino)pyrimidin-4-ylamino)-5-methoxyphenyl)methanesulfonamide]"
13,1 to 10,"CCc1ccccc1Nc1ncc(Br)c(Nc2ccccc2NS(C)(=O)=O)n1 [Example 19, N-(2-(5-bromo-2-(2-ethylphenylamino)pyrimidin-4-ylamino)phenyl)methanesulfonamide hydrochloride]"
14,0.1 to 1,"COc1ccc(Nc2nc(Nc3cc(OC)c(OC)cc3Cl)ncc2Cl)c(NS(C)(=O)=O)c1 [Example 53, N-(2-(5-chloro-2-(2-chloro-4,5-dimethoxyphenylamino)pyrimidin-4-ylamino)-5-methoxyphenyl)methanesulfonamide]"
15,1 to 10,"COc1ccc(Nc2nc(Nc3cccc(F)c3OC)ncc2Cl)c(NS(C)(=O)=O)c1 [Example 61, N-(2-(5-chloro-2-(3-fluoro-2-methoxyphenylamino)pyrimidin-4-ylamino)-5-methoxyphenyl)methanesulfonamide hydrochloride]"
16,1 to 10,"COC(=O)CCc1ccc(OC)c(Nc2ncc(Cl)c(Nc3ccc(OC)cc3NS(C)(=O)=O)n2)c1 [Example 115, Methyl 3-(3-(5-chloro-4-(4-methoxy-2-(methylsulfonamido)phenylamino)pyrimidin-2-ylamino)-4-methoxyphenyl)propanoate]"
